# Test results reported in the supplement of paper PMC11208160.
# Test: recombinant UMI read abundance after kanamycin selection (control-corrected) (log10(CPM+1)); higher = more efficient recombination; extreme values may be limits of the assay; sequences stand for … in AGTGCAGAGAAAATCGGCCAGTTTTCTCTGCCTGCAGTCCGCATGCCGTGGGACCCCTTGGGTTCTAACCTGTTGCCTAGATTTATGCAGCGGACTGCCTTTCTCCCAAAGTGATAAACCGG…AGGTTGGTTTCACT; site = the 11-nt donor
# Method in brief: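 Counts of recombinant UMIs were reported as log10(CPM+1). Before that, they were converted to CPM, averaged over replicates and scaled using control-derived factors. They came from PCR across the donor–target junction after Escherichia coli carrying the pair library and target plasmid was plated on IPTG (0.07 mM) plus kanamycin, or unselected, in two replicates each.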
# 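Also: IS621 bridge recombinase in Escherichia coli cells against a fixed T5 target plasmid.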
row,Sequence,recombinant UMI read abundance (log10)
1,TGTTACCCATGGACCGGTTTTCCCGGTAATCCGTATTTGTA (site TGTTACCCTTA),0.0142
2,TGTTACCCATGGACCGGTTTTCCCGGTAATCCGTATTTGTA (site TGTTCCCCTTA),0.0074
3,TGTTACCCATGGACCGGTTTTCCCGGTAATCCGTATTTGTA (site TGTTGCCCTTA),0.0124
4,TGTTACCCATGGACCGGTTTTCCCGGTAATCCGTATTTGTA (site TGTTTCCCTTA),0
5,TGTTAGCCATGGACCGGTTTTCCCGGTAATCCGTATTTGAC (site TGTTAGCCTGT),0
6,TGTTCCCCATGGACCGGTTTTCCCGGTAATCCGTATTTGCA (site TGTTCCCCTTA),0.0177
7,TGTTCCCCATGGACCGGTTTTCCCGGTAATCCGTATTTGCA (site TGTTCCCCTTC),0.0115
8,TGTTCCCCATGGACCGGTTTTCCCGGTAATCCGTATTTGCA (site TGTTCCCCTTG),0.256
9,TGTTCCCCATGGACCGGTTTTCCCGGTAATCCGTATTTGCA (site TGTTCCCCTTT),0.0133
10,TGTTCCCCATGGACCGGTTTTCCCGGTAATCCGTATTTGTA (site AGTTCCCCTTA),0.355
11,TGTTCCCCATGGACCGGTTTTCCCGGTAATCCGTATTTGTA (site CGTTCCCCTTA),0.193
12,TGTTCCCCATGGACCGGTTTTCCCGGTAATCCGTATTTGTA (site GGTTCCCCTTA),0.00981
13,TGTTCCCCATGGACCGGTTTTCCCGGTAATCCGTATTTGTA (site TATTCCCCTTA),0.0123
14,TGTTCCCCATGGACCGGTTTTCCCGGTAATCCGTATTTGTA (site TCTTCCCCTTA),0.0139
15,TGTTCCCCATGGACCGGTTTTCCCGGTAATCCGTATTTGTA (site TGATCCCCTTA),0.0165
16,TGTTCCCCATGGACCGGTTTTCCCGGTAATCCGTATTTGTA (site TGCTCCCCTTA),0.377
17,TGTTCCCCATGGACCGGTTTTCCCGGTAATCCGTATTTGTA (site TGGTCCCCTTA),0
18,TGTTCCCCATGGACCGGTTTTCCCGGTAATCCGTATTTGTA (site TGTACCCCTTA),0.0227
19,TGTTCCCCATGGACCGGTTTTCCCGGTAATCCGTATTTGTA (site TGTCCCCCTTA),0.136
20,TGTTCCCCATGGACCGGTTTTCCCGGTAATCCGTATTTGTA (site TGTGCCCCTTA),0.013
21,TGTTCCCCATGGACCGGTTTTCCCGGTAATCCGTATTTGTA (site TGTTACCCTTA),0.177
22,TGTTCCCCATGGACCGGTTTTCCCGGTAATCCGTATTTGTA (site TGTTCACCTTA),0.00592
23,TGTTCCCCATGGACCGGTTTTCCCGGTAATCCGTATTTGTA (site TGTTCCACTTA),0.0238
24,TGTTCCCCATGGACCGGTTTTCCCGGTAATCCGTATTTGTA (site TGTTCCCCTAA),0.0105
25,TGTTCCCCATGGACCGGTTTTCCCGGTAATCCGTATTTGTA (site TGTTCCCCTCA),0.0333

row,Sequence,recombinant UMI read abundance (log10)
1,TGTTCCCCATGGACCGGTTTTCCCGGTAATCCGTATTTGTA (site TGTTCCCCTGA),0
2,TGTTCCCCATGGACCGGTTTTCCCGGTAATCCGTATTTGTA (site TGTTCCCCTTA),0.625
3,TGTTCCCCATGGACCGGTTTTCCCGGTAATCCGTATTTGTA (site TGTTCCCCTTC),0.00924
4,TGTTCCCCATGGACCGGTTTTCCCGGTAATCCGTATTTGTA (site TGTTCCCCTTG),0.00318
5,TGTTCCCCATGGACCGGTTTTCCCGGTAATCCGTATTTGTA (site TGTTCCCCTTT),0.0256
6,TGTTCCCCATGGACCGGTTTTCCCGGTAATCCGTATTTGTA (site TGTTCCGCTTA),0.0259
7,TGTTCCCCATGGACCGGTTTTCCCGGTAATCCGTATTTGTA (site TGTTCCTCTTA),0.105
8,TGTTCCCCATGGACCGGTTTTCCCGGTAATCCGTATTTGTA (site TGTTCGCCTTA),0.0106
9,TGTTCCCCATGGACCGGTTTTCCCGGTAATCCGTATTTGTA (site TGTTCTCCTTA),0.0643
10,TGTTCCCCATGGACCGGTTTTCCCGGTAATCCGTATTTGTA (site TGTTGCCCTTA),0.0058
11,TGTTCCCCATGGACCGGTTTTCCCGGTAATCCGTATTTGTA (site TGTTTCCCTTA),0.381
12,TGTTCCCCATGGACCGGTTTTCCCGGTAATCCGTATTTGTA (site TTTTCCCCTTA),0.0217
13,TGTTGCCCATGGACCGGTTTTCCCGGTAATCCGTATTTGTA (site TGTTACCCTTA),0.032
14,TGTTGCCCATGGACCGGTTTTCCCGGTAATCCGTATTTGTA (site TGTTCCCCTTA),0.324
15,TGTTGCCCATGGACCGGTTTTCCCGGTAATCCGTATTTGTA (site TGTTGCCCTTA),0.0196
16,TGTTGCCCATGGACCGGTTTTCCCGGTAATCCGTATTTGTA (site TGTTTCCCTTA),0.0108
17,TGTTGTTCATGGACCGGTTTTCCCGGTAATCCGTATTTGAA (site TGTTGTTCTTT),0.472
18,TTAACTGCATGGACCGGTTTTCCCGGTAATCCGTATTTGTG (site TTAACTGCTCA),0.697
19,TTAACTGCATGGACCGGTTTTCCCGGTAATCCGTATTTGTG (site TTACCTGCTCA),0.00413
20,TTAACTGCATGGACCGGTTTTCCCGGTAATCCGTATTTGTG (site TTAGCTGCTCA),0.00337
21,TTAACTGCATGGACCGGTTTTCCCGGTAATCCGTATTTGTG (site TTATCTGCTCA),0.0133
22,TTAAGCCCATGGACCGGTTTTCCCGGTAATCCGTATTTGGT (site TTAAGCCCTAC),0.174
23,TTAATTCCATGGACCGGTTTTCCCGGTAATCCGTATTTGTT (site TTAATTCCTAA),0.0021
24,TTACAATCATGGACCGGTTTTCCCGGTAATCCGTATTTGGG (site TTACAATCTCC),0
25,TTACATTCATGGACCGGTTTTCCCGGTAATCCGTATTTGAC (site TTACATTCTGT),1.68

row,Sequence,recombinant UMI read abundance (log10)
1,TTACCATCATGGACCGGTTTTCCCGGTAATCCGTATTTGAC (site TTACCATCTGT),2.16
2,TTACCTTCATGGACCGGTTTTCCCGGTAATCCGTATTTGTC (site TTACCTTCTGA),0.519
3,TTAGAAACATGGACCGGTTTTCCCGGTAATCCGTATTTGAT (site TTAGAAACTAT),2.51
4,TTAGAGGCATGGACCGGTTTTCCCGGTAATCCGTATTTGGA (site TTAGAGGCTTC),0.701
5,TTAGATGCATGGACCGGTTTTCCCGGTAATCCGTATTTGTG (site TTAGATGCTCA),1.52
6,TTAGATGCATGGACCGGTTTTCCCGGTAATCCGTATTTGTG (site TTAGCTGCTCA),0.0227
7,TTAGATGCATGGACCGGTTTTCCCGGTAATCCGTATTTGTG (site TTAGGTGCTCA),0.00706
8,TTAGATGCATGGACCGGTTTTCCCGGTAATCCGTATTTGTG (site TTAGTTGCTCA),0.00838
9,TTAGCCGCATGGACCGGTTTTCCCGGTAATCCGTATTTGTG (site TTAGCAGCTCA),0.108
10,TTAGCCGCATGGACCGGTTTTCCCGGTAATCCGTATTTGTG (site TTAGCCGCTCA),0.564
11,TTAGCCGCATGGACCGGTTTTCCCGGTAATCCGTATTTGTG (site TTAGCGGCTCA),0.0427
12,TTAGCCGCATGGACCGGTTTTCCCGGTAATCCGTATTTGTG (site TTAGCTGCTCA),0.00693
13,TTAGCTCCATGGACCGGTTTTCCCGGTAATCCGTATTTGTG (site TTAGCTACTCA),0.00349
14,TTAGCTCCATGGACCGGTTTTCCCGGTAATCCGTATTTGTG (site TTAGCTCCTCA),0.0123
15,TTAGCTCCATGGACCGGTTTTCCCGGTAATCCGTATTTGTG (site TTAGCTGCTCA),0.00795
16,TTAGCTCCATGGACCGGTTTTCCCGGTAATCCGTATTTGTG (site TTAGCTTCTCA),0.0128
17,TTAGCTGCATGGACCGGTTTTCCCGGTAATCCGTATTTGAG (site TTAGCTGCTCA),0.025
18,TTAGCTGCATGGACCGGTTTTCCCGGTAATCCGTATTTGAG (site TTAGCTGCTCC),0.0699
19,TTAGCTGCATGGACCGGTTTTCCCGGTAATCCGTATTTGAG (site TTAGCTGCTCG),0.0144
20,TTAGCTGCATGGACCGGTTTTCCCGGTAATCCGTATTTGAG (site TTAGCTGCTCT),0.839
21,TTAGCTGCATGGACCGGTTTTCCCGGTAATCCGTATTTGCG (site TTAGCTGCTCA),0.00643
22,TTAGCTGCATGGACCGGTTTTCCCGGTAATCCGTATTTGCG (site TTAGCTGCTCC),0.0194
23,TTAGCTGCATGGACCGGTTTTCCCGGTAATCCGTATTTGCG (site TTAGCTGCTCG),1.41
24,TTAGCTGCATGGACCGGTTTTCCCGGTAATCCGTATTTGCG (site TTAGCTGCTCT),0.00813
25,TTAGCTGCATGGACCGGTTTTCCCGGTAATCCGTATTTGTA (site TTAGCTGCTAA),0.0184
